Measured values taken from patent US20190241864A1, “Composition Comprising Non-Germinant and Bacterial Spores” (NOVOZYMES BIOAG A/S, priority 2016, published 2019).

What was measured:
[1] = system: spores from Bacillus pumilus strain SB3189; assay: Germinant testing of heat-activated spores, decrease in relative OD580; format: cell-based; conditions: 3 mM
[2] = system: spores from Bacillus amyloliquefaciens strain SB3615; assay: as above; conditions: substance alone, 3 mM; 37° C., 70 minutes
[3] = system: spores from Bacillus megaterium strain SB3112; assay: as above; format: cell-based; conditions: Example 2 studies, 3 mM
[4] = system: Bacillus megaterium strain SB3112 spores; assay: Spore germination by DPA release after L-asparagine treatment; format: cell-based; conditions: for Gmax: mean of 3
[5] = system: Bacillus pumilus strain SB3189 spores; assay: Spore germination by dipicolinic acid (DPA) release (Tb-DPA fluorescence) after L-valine treatment; format: cell-based; conditions: for Gmax: then 10 mM AAGFK, mean of 3
Description: This was performed three consecutive times.
Germination of spores in these studies was determined by measuring dipicolinic acid (DPA). DPA is about 10% of the mass of endospores, all of which is generally released when germination is triggered. Boiling spores generally releases all of the DPA. DPA release was detected using terbium chloride (TbCl3), as described below.
To perform the germination assays, 30 μl of spores were added to wells of a 96-well flat-bottom microtiter plate. Subsequently, 35 μl of a 250 μM TbCl3 stock was added. At time 0, 85 μl of a 10 mM L-alanine+10 mM AGFK (10 mM AGFK is 10 mM each of L-asparagine, D-glucose, D-fructose, and KCl) (10 mM AAGFK) was added. […] Tb-DPA is excited at 270 nm and emits at 545 nm. All experimental samples were tested in triplicate. Baseline controls for each sample were generated by omitting L-alanine and these were performed in duplicate. All sample wells were measured immediately after […] was added (time 0) and then over time. For each time point, the data were normalized to values for the spores that had been boiled for two hours to force 100% release of DPA from the spores.

With O=C(CO)[C@@H](O)[C@H](O)[C@H](O)CO [D-fructose] the “germination of spores by substance alone” value [1] was “None of L-alanine, L-cysteine, D-fructose, or sucrose alone, at a concentration of 3 mM, caused germination”.
In the case of C[C@H](N)C(=O)O [L-alanine], the “germination of spores by substance alone” value [1] is reported as “None of L-alanine, L-cysteine, D-fructose, or sucrose alone, at a concentration of 3 mM, caused germination” and the germination of spores [2] is reported as “could cause germination”.
NC(=O)C[C@H](N)C(=O)O [L-asparagine] was tested, and the germinant behavior [3] was “not shown to have germinant behavior”, the “Gmax compared to spores not pretreated with L-asparagine” value (from here on “Gmax compared to spores not pretreated”) ([4]; 4° C., native and heat-activated spores, all tested concentrations) was “increased Gmax” and the “Gmax compared to spores not pretreated” value ([4]; 22° C., 3.0 mM, both native and heat-activated spores) was “increased Gmax”. The “Gmax compared to spores not pretreated” value ([4]; 22° C., 10 mM, native spores) was “also increased Gmax”, the Gmax ([4]; heat activated spores, 0.5 mM L-asparagine overnight at 4° C.) was 106% and the Gmax ([4]; heat activated spores, 0.5 mM L-asparagine overnight at 22° C.) was 81%. It also gave a Gmax ([4]; heat activated spores, 3.0 mM L-asparagine overnight at 4° C.) of 109%, a Gmax ([4]; heat activated spores, 3.0 mM L-asparagine overnight at 22° C.) of 102% and a Gmax ([4]; heat activated spores, 10.0 mM L-asparagine overnight at 4° C.) of 114%. For the same molecule, the Gmax ([4]; heat activated spores, 10.0 mM L-asparagine overnight at 22° C.) was 79%, the Gmax ([4]; native spores, 0.5 mM L-asparagine overnight at 4° C.) was 29% and the Gmax ([4]; native spores, 0.5 mM L-asparagine overnight at 22° C.) was 56%. For the same molecule, the Gmax ([4]; native spores, 3.0 mM L-asparagine overnight at 4° C.) was 28%, the Gmax ([4]; native spores, 3.0 mM L-asparagine overnight at 22° C.) was 100% and the Gmax ([4]; native spores, 10.0 mM L-asparagine overnight at 4° C.) was 29%. For the same molecule, the Gmax ([4]; native spores, 10.0 mM L-asparagine overnight at 22° C.) was 81%.
In the case of N[C@@H](CS)C(=O)O [L-cysteine], the “germination of spores by substance alone” value [1] is reported as “None of L-alanine, L-cysteine, D-fructose, or sucrose alone, at a concentration of 3 mM, caused germination”.
With CC(C)[C@H](N)C(=O)O [L-valine] the germinant activity ([1]; tested in combination with individual sugars, and in combination with salts) was “did not show germinant activity”, the Gmax ([5]; 0.5 mM L-valine 24 hours at 4° C.) was 74% and the Gmax ([5]; 0.5 mM L-valine 24 hours at 22° C.) was 6%. The “change of Gmax” value ([5]; 0.5 mM L-valine at 22° C.) was “the Gmax decreased”, the Gmax ([5]; 3.0 mM L-valine 24 hours at 4° C.) was 70% and the Gmax ([5]; 3.0 mM L-valine 24 hours at 22° C.) was 43%. For the same molecule, the “increase in Gmax compared to the control that did not contain L-valine” value ([5]; 3.0 mM L-valine at 22° C.) was about 3 fold, the Gmax ([5]; 10.0 mM L-valine 24 hours at 4° C.) was 76% and the Gmax ([5]; 10.0 mM L-valine 24 hours at 22° C.) was 77%. For the same molecule, the “increase in Gmax compared to the control that did not contain L-valine” value ([5]; 10.0 mM L-valine at 22° C.) was about 5 fold, the “change of Tlag” value ([5]; L-valine 0.5-10.0 mM, 4° C. and 22° C.) was “Tlag was not changed” and the “effects on germination parameters” value ([5]; L-valine incubated with spores at 4° C.) was “small effects on germination parameters”.
In the case of OC[C@H]1O[C@@](CO)(O[C@H]2O[C@H](CO)[C@@H](O)[C@H](O)[C@H]2O)[C@@H](O)[C@@H]1O [sucrose], the “germination of spores by substance alone” value [1] is reported as “None of L-alanine, L-cysteine, D-fructose, or sucrose alone, at a concentration of 3 mM, caused germination”.
